Source: ChEMBL document CHEMBL4765455, “Design, synthesis, and biological evaluations of novel 3-amino-4-ethynyl indazole derivatives as Bcr-Abl kinase inhibitors with potent cellular antileukemic activity” (Eur J Med Chem, 2020)

Legend:
[1] = Mean residence time in ICR mouse at 5 mg/kg, iv measured up to 8 hrs by LC-MS/MS analysis; type: ADME, organism-based; conditions: in vivo
[2] = biological target: Macrophage colony-stimulating factor 1 receptor (Homo sapiens, UniProt P07333); assay: Inhibition of FMS (unknown origin) at 1 uM relative to control
[3] = biological target: Bcr/Abl fusion protein (Homo sapiens) (UniProt P00519+P11274); assay: Inhibition of Bcr-Abl in human K562 cells assessed as reduction in Bcr-Abl phosphorylation incubated for 1 hr by Western blotting analysis; type: cell-based; conditions: dose 0.003-0.3 µM
[4] = test system: RPMI-8226; assay: Antiproliferative activity against human RPMI-8226 cells assessed as cell growth inhibition measured after 48 hrs by SRB assay; type: functional
[5] = biological target: Aurora kinase A (Homo sapiens) (UniProt O14965); assay: Inhibition of Aurora A (unknown origin) at 1 uM relative to control
[6] = test system: SR; assay: Antiproliferative activity against human SR cells assessed as cell growth inhibition measured after 48 hrs by SRB assay; type: functional
[7] = organism: Homo sapiens; assay: Selectivity index, ratio of IC50 for BRAF (unknown origin) to IC50 for Bcr-Abl (unknown origin)
[8] = biological target: Bcr/Abl fusion protein (Homo sapiens, UniProt P00519); assay: Inhibition of wild type BCR-ABL (unknown origin) incubated for 40 mins in presence of [gamma33P]ATP by scintillation method; type: protein assay
[9] = biological target: Serine/threonine-protein kinase PLK1 (Homo sapiens) (UniProt P53350); assay: Inhibition of PLK1 (unknown origin) at 1 uM relative to control
[10] = biological target: Voltage-gated inwardly rectifying potassium channel KCNH2 (Homo sapiens, UniProt Q12809); assay: Inhibition of human ERG incubated for 4 hrs by competitive fluorescence tracer binding based assay
[11] = test system: CCRF-CEM; assay: Antiproliferative activity against human CCRF-CEM cells assessed as cell growth inhibition measured after 48 hrs by SRB assay; type: functional
[12] = biological target: Insulin-like growth factor 1 receptor (Homo sapiens) (UniProt P08069); assay: Inhibition of IGF1R (unknown origin) at 1 uM relative to control
[13] = organism: Homo sapiens; assay: Selectivity index, ratio of IC50 for c-Src (unknown origin) to IC50 for Bcr-Abl (unknown origin)
[14] = biological target: Serine/threonine-protein kinase B-raf (Homo sapiens, UniProt P15056); assay: Inhibition of BRAF (unknown origin) in presence of ATP
[15] = test system: CCRF-CEM; assay: Antiproliferative activity against human CCRF-CEM cells assessed as cell growth inhibition at 10 uM measured after 48 hrs by SRB assay relative to control; type: functional; conditions: read-out: GI
[16] = biological target: Hepatocyte growth factor receptor (Homo sapiens) (UniProt P08581); assay: Inhibition of c-MET (unknown origin) at 1 uM relative to control
[17] = AUClast in ICR mouse at 5 mg/kg, iv measured up to 8 hrs by LC-MS/MS analysis; type: ADME, organism-based; design: route intravenous, dose 5 mg/kg, time <=8; conditions: in vivo

Chain of Voltage-gated inwardly rectifying potassium channel KCNH2 (Q12809 whole entry): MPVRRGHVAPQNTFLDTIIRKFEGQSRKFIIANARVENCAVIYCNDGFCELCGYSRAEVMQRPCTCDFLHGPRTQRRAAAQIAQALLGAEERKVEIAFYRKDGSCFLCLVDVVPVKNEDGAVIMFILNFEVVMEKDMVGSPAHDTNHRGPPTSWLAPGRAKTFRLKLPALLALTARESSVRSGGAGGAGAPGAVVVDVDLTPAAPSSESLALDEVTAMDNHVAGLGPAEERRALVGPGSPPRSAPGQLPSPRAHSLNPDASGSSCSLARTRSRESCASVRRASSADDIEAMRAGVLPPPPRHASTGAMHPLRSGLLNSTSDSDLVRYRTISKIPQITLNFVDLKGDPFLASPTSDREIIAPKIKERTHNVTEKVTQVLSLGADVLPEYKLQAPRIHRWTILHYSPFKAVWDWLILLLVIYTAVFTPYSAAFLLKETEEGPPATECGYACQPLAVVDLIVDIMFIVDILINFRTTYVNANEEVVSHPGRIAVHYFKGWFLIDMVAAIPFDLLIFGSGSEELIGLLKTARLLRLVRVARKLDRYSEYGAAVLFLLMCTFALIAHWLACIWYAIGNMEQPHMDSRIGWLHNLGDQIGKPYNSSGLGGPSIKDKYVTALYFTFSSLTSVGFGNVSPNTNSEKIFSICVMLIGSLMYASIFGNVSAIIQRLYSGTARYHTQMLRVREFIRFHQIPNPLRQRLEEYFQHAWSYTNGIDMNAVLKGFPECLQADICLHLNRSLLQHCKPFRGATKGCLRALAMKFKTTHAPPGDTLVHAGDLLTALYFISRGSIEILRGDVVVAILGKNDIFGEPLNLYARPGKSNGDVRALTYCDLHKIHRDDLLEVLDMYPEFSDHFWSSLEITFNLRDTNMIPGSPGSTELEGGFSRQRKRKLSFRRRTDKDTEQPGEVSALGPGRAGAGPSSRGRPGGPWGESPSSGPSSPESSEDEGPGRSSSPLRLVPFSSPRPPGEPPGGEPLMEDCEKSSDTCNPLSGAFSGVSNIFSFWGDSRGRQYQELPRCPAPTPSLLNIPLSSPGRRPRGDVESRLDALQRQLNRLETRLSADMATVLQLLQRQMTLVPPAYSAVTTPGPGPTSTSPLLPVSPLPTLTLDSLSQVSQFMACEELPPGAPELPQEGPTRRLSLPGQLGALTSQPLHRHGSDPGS
Chain of Insulin-like growth factor 1 receptor (Homo sapiens) (P08069 31-736 limits assumed): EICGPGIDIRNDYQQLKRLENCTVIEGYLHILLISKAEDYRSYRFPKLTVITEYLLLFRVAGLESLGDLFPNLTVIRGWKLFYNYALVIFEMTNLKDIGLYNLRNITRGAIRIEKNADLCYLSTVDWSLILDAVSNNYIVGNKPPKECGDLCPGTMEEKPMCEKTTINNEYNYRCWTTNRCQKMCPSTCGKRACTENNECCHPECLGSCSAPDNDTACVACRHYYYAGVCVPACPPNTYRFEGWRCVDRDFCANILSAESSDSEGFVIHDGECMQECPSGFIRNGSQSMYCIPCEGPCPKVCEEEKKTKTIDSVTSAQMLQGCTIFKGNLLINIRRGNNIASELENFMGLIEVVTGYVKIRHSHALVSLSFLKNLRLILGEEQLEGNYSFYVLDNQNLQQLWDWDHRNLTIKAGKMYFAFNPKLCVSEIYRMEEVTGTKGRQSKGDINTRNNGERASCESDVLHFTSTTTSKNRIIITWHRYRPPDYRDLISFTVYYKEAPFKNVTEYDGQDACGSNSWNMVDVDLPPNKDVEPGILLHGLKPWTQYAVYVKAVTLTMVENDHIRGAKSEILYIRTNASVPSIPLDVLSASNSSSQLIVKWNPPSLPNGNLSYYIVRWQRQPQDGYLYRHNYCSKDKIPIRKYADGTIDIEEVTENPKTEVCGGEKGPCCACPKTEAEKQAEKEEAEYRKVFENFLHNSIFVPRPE
Chain of Insulin-like growth factor 1 receptor (Homo sapiens) (P08069 741-1367 limits assumed): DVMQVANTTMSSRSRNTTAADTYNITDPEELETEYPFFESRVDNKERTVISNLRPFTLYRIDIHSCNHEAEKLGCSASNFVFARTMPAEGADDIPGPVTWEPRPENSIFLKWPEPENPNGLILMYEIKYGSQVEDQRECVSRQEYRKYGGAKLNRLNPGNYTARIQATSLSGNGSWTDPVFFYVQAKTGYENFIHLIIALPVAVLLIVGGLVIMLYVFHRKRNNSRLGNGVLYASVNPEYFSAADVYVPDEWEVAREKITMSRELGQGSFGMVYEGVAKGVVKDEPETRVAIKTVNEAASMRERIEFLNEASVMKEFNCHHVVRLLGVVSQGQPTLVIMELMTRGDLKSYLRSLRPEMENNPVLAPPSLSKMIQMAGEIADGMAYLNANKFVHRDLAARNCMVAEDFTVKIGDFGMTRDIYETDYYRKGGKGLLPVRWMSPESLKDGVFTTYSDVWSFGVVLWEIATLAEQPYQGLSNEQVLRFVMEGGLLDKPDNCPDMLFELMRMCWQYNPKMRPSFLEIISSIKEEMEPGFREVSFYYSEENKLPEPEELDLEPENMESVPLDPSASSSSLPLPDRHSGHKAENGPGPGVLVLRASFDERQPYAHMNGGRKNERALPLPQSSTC
Chain of Bcr/Abl fusion protein (Homo sapiens) (P00519 whole entry, looked up, the tested form may be a part): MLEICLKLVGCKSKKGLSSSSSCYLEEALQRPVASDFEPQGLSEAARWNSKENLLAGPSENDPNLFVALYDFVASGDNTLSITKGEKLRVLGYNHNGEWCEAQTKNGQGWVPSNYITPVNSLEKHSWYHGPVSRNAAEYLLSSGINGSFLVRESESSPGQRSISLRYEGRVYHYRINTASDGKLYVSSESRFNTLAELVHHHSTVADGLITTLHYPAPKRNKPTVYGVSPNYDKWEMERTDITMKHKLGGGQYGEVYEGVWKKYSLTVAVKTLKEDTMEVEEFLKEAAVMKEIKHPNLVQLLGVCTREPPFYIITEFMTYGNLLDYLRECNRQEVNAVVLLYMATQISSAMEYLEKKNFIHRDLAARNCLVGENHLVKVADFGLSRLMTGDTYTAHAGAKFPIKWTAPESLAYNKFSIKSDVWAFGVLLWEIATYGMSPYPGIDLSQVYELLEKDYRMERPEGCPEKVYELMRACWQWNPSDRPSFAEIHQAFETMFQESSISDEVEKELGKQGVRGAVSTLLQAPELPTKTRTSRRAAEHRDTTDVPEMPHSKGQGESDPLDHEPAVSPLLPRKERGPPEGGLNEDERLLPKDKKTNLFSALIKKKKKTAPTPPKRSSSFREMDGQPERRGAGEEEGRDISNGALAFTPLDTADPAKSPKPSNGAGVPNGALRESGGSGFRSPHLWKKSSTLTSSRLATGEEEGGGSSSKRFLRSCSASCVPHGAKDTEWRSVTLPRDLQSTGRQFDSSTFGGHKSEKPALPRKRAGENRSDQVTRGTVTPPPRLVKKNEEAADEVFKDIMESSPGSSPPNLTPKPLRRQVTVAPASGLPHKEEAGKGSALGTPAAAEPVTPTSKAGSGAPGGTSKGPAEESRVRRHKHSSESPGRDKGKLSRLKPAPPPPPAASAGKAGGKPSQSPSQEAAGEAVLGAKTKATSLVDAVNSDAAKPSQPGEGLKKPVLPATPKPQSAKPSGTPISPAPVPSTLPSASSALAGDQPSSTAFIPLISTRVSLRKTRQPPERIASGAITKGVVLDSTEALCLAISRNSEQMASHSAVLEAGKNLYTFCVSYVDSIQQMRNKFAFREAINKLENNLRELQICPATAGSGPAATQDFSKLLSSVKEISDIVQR
Chain of Bcr/Abl fusion protein (Homo sapiens) (P11274 whole entry, looked up, the tested form may be a part): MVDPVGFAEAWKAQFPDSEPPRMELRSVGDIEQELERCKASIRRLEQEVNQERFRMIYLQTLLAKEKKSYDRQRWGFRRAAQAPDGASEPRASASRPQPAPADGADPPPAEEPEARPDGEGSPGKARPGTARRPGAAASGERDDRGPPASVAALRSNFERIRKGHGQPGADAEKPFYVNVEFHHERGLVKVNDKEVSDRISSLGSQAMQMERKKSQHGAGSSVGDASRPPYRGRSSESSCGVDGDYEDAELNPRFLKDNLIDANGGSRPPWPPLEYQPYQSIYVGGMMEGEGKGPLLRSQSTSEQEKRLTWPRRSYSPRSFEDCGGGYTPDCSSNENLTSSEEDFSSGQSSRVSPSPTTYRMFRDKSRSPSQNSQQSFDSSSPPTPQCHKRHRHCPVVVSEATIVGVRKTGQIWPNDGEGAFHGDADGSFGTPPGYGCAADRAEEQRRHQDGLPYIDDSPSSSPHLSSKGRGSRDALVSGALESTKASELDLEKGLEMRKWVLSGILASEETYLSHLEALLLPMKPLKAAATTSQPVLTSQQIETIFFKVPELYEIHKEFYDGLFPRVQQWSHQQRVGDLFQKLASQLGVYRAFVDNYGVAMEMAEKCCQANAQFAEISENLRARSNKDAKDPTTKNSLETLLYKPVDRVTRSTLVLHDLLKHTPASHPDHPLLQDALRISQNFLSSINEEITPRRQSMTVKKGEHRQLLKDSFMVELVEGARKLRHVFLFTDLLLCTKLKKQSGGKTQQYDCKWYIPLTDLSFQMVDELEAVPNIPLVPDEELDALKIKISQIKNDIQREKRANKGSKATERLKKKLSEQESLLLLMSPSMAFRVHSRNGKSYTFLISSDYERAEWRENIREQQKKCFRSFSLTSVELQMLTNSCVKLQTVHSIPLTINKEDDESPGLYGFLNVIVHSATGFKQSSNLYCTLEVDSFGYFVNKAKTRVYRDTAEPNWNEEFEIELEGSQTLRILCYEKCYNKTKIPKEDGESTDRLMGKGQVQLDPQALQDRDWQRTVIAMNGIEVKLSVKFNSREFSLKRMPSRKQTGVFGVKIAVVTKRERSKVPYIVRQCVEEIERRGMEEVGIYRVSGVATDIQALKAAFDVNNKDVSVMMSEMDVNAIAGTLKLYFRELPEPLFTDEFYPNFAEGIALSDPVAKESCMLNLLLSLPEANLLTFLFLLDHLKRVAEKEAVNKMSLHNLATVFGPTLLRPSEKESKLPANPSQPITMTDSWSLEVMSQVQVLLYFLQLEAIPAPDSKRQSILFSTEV
Chain of Bcr/Abl fusion protein (P00519 whole entry, the tested form may be a part): as the sequence (P00519 whole entry, looked up, the tested form may be a part) above
Chain of Bcr/Abl fusion protein (P11274 whole entry, further chain, the tested form may be a part): as the sequence (P11274 whole entry, looked up, the tested form may be a part) above

Nc1n[nH]c2cccc(C#Cc3cccc(NC(=O)c4ccc(N5CCOCC5)c(C(F)(F)F)c4)c3)c12
MRT [1]: 4.7 h
inhibition [2]: 87.8%
Activity [3]: Dose-dependent effect
GI50 [4]: 1980 nM
inhibition [5]: 43.4%
GI50 [6]: 2400 nM
Ratio IC50 [7]: 26.5
IC50 [8]: 4.6 nM
inhibition [9]: < 30%
IC50 [10]: 3400 nM
GI50 [11]: 1360 nM
inhibition [12]: < 30%
Ratio IC50 [13]: 14.3
IC50 [14]: 122 nM
inhibition of growth at 10 µM [15]: 89.5%
inhibition [16]: 43.4%
AUC(0-t) at 8 h [17]: 14000 ng·h/mL
